In ChEMBL document CHEMBL5584354, “Impact of Conjugation of the Reactive Oxygen Species (ROS)-Generating Catalytic Moiety with Membrane-Active Antimicrobial Peptoids: Promoting Multitarget Mechanism and Enhancing Selectivity” (J Med Chem, 2024):
Activity calls are given as the source filed them. The rule behind the calls is not given here. Non-standard residues stand in square brackets, D forms with d. Residues, ends and D or L forms follow the SMILES beside them. Gly(N(CH2)2(3-indolyl)) = O=C(O)CNCCc1c[nH]c2ccccc12; Nspe = C[C@H](NCC(=O)O)c1ccccc1; Nlys = NCCCCNCC(=O)O

Assays:
[1] = Hemolytic activity in male Sprague-Dawley rat erythrocytes at 100 uM incubated for 1 hr by absorbance based method relative to control; type: toxicity, cell-based, Erythrocyte; details: read-out: Activity
[2] = Toxicity in female ICR mouse assessed as dilatation of renal vein in kidney at 5 mg/kg, ip administered four doses for 12 hrs and measured 24 hrs post last dose by H and E staining based light microscopic analysis; type: organism-based; details: in vivo, 36 h
Escherichia coli [3] = assay: (§1) Antibacterial activity against Escherichia coli K1 infected in female ICR mouse model of septic shock assessed as creatinine level in serum at 5 mg/kg, ip pretreated for 1 hr followed by bacteria addition and further treated with 3 doses of compound every 4 hrs (reference value: 57.3%); type: functional; details: time 9 hrs
[4] = Toxicity in female ICR mouse assessed as effect on ALT level in serum at 5 mg/kg, ip administered four doses for 12 hrs and measured 24 hrs post last dose; type: organism-based; details: in vivo, 36 h
RAW264.7 [5] = assay: Inhibition of LPS-induced NF-kappaB pathway in mouse RAW264.7 cells assessed as reduction in NF-kappaB nuclear translocation at 10 uM preincubated for 1 hr followed by LPS addition and measured after 1 hr by immunofluorescence staining based confocal microscopic analysis; type: cell-based; details: time 2.0 hrs
RAW264.7 [6] = assay: Antiinflammatory activity in LPS-stimulated mouse RAW264.7 cells assessed as reduction in TNFalpha production at 10 uM incubated for 16 hrs by ELISA relative to control; type: functional; parameters: scale not given: the % may be the effect or the level left
Lipopolysaccharide (LPS) = assay: Binding affinity to Escherichia coli O111:B4 LPS at 0 to 25 uM BODIPY-TR-cadaverine substitution assay; type: subcellular; details: dose 0-25 µM
HEK293 = assay: Cytotoxicity against HEK293 cells assessed as reduction in cell viability at 3.1 to 25 uM incubated for 24 hrs by WST-8 assay; type: toxicity, cell-based; details: human, hek293, 24 h, dose 3.1-25 µM
HaCaT = assay: Cytotoxicity against human HaCaT cells assessed as cell killing incubated for 24 hrs by MTS assay; type: toxicity, cell-based
[7] = Selectivity index, ratio of HC10 for hemolytic activity in male Sprague-Dawley rat erythrocytes to MIC for antibacterial activity against Escherichia coli ATCC 25922; type: toxicity; details: read-out: Selectivity Index
[8] = Hemolytic activity in male Sprague-Dawley rat erythrocytes at 50 uM incubated for 1 hr by absorbance based method relative to control; type: toxicity, cell-based, Erythrocyte; details: read-out: Activity
RAW264.7 [9] = assay: Antiinflammatory activity in LPS-stimulated mouse RAW264.7 cells assessed as reduction in nitrite production at 10 uM incubated for 16 hrs by ELISA relative to control; type: functional; parameters: scale not given: the % may be the effect or the level left
L929 = assay: Cytotoxicity against mouse L929 cells assessed as reduction in cell viability at 3.1 to 25 uM incubated for 24 hrs by WST-8 assay; type: toxicity, cell-based; details: l929, 24 h, dose 3.1-25 µM
Escherichia coli [10] = assay: as §1, with “reduction” for “creatinine level”, “lung edema” for “serum”, “by H and E staining based light microscopic analysis” for “(reference value: 57.3%)”; type: functional, organism-based; details: time 9.0 hrs
Cell membrane = assay: Disruption of outer membrane in Escherichia coli ATCC 25922 assessed as increase in absorbance measured every 5 mins for 90 mins by nitrocefin assay; type: cell membranes; details: dose 0-25 µM
Escherichia coli [11] = assay: (§2) Antibacterial activity against Escherichia coli K1 infected in female ICR mouse model of septic shock assessed as reduction in AST level in serum at 5 mg/kg, ip pretreated for 1 hr followed by bacteria addition and further treated with 3 doses of compound every 4 hrs relative to control; type: functional; parameters: scale not given: the % may be the effect or the level left; details: time 9 hrs
Escherichia coli [12] = assay: as §1, with “increase” for “creatinine level”, “animal survival” for “serum”, “and measured every hour for 36 hrs and every 6 hrs for 96 hrs” for “(reference value: 57.3%)”; type: functional
MRC5 = assay: Cytotoxicity against human MRC5 cells assessed as cell killing incubated for 24 hrs by MTS assay; type: toxicity, cell-based; details: mrc5, 24 h
[13] = Toxicity in female ICR mouse assessed as effect on blood urea nitrogen level at 5 mg/kg, ip administered four doses for 12 hrs and measured 24 hrs post last dose; type: organism-based; details: in vivo, 36 h
HEK-Blue hTLR7 = assay: Inhibition of TLR4-mediated inflammatory signaling in LPS-stimulated HEK-Blue […] cells assessed as reduction in SEAP activity at 10 uM preincubated for 1 hr followed by LPS stimulation and measured after 16 hrs by ELISA relative to control; type: cell-based; details: Homo sapiens, time 17.0 hrs
[14] = Toxicity in female ICR mouse assessed as effect on creatinine level in serum at 5 mg/kg, ip administered four doses for 12 hrs and measured 24 hrs post last dose; type: organism-based; details: in vivo, 36 h
Escherichia coli [15] = assay: Antibacterial activity against Escherichia coli K1 infected in female ICR mouse model of septic shock assessed as reduction in BUN level in serum at 5 mg/kg, ip pretreated for 1 hr followed by bacteria addition and further treated with 3 doses of compound every 4 hrs relative to control; type: functional; parameters: scale not given: the % may be the effect or the level left; details: time 9 hrs
Escherichia coli [16] = assay: as §2, with “TNFalpha” for “AST”, “hrs by ELISA” for “hrs”; type: functional; parameters: scale not given: the % may be the effect or the level left; details: time 9 hrs
Escherichia coli [17] = assay: as §2, with “pulmonary congestion” for “AST level”, “lung” for “serum”, “by H and E staining based light microscopic analysis” for “relative to control”; type: functional, organism-based; details: time 9.0 hrs
[18] = Toxicity in female ICR mouse infected with Escherichia coli K1 assessed as lung injury at 5 mg/kg, ip pretreated for 1 hr followed by bacteria addition and further treated with 3 doses of compound every 4 hrs; type: organism-based; details: in vivo, 9 h
[19] = Toxicity in female ICR mouse assessed as lymphocyte infiltration in kidney at 5 mg/kg, ip administered four doses for 12 hrs and measured 24 hrs post last dose by H and E staining based light microscopic analysis; type: organism-based; details: in vivo, 36 h
RAW264.7 [20] = assay: Cytotoxicity against mouse RAW264.7 cells assessed as cell killing incubated for 24 hrs by MTS assay; type: toxicity, cell-based; details: raw264.7, 24 h
Escherichia coli [21] = assay: (§3) Antibacterial activity against Escherichia coli K1 infected in female ICR mouse model of septic shock assessed as reduction in bacterial load in lung at 5 mg/kg, ip pretreated for 1 hr followed by bacteria addition and further treated with 3 doses of compound every 4 hrs; type: functional, organism-based; details: time 9.0 hrs
Escherichia coli [22] = assay: Antibacterial activity against Escherichia coli K1 infected in female ICR mouse model of septic shock assessed as reduction in bacterial load in liver at 5 mg/kg, ip pretreated for 1 hr followed by bacteria addition and further treated with 3 doses of compound every 4 hrs; type: functional, organism-based; details: time 9.0 hrs
[23] = Toxicity in female ICR mouse assessed as effect on AST level in serum at 5 mg/kg, ip administered four doses for 12 hrs and measured 24 hrs post last dose; type: organism-based; details: in vivo, 36 h
Escherichia coli [24] = assay: Antibacterial activity against Escherichia coli K1 infected in female ICR mouse model of septic shock assessed as reduction in bacterial load in kidney at 5 mg/kg, ip pretreated for 1 hr followed by bacteria addition and further treated with 3 doses of compound every 4 hrs; type: functional, organism-based; details: time 9.0 hrs
[25] = Hemolytic activity in male Sprague-Dawley rat erythrocytes at 25 uM incubated for 1 hr by absorbance based method relative to control; type: toxicity, cell-based, Erythrocyte; details: read-out: Activity
Escherichia coli [26] = assay: as §3, with “alveolar hemorrhage” for “bacterial load”, “hrs by H and E staining based light microscopic analysis” for “hrs”; type: functional, organism-based; details: time 9.0 hrs

Which hemolysis at 1 h, 100 µM [1] does the source give for `C[C@@H](c1ccccc1)N(CC(=O)N(CCCCN)CC(=O)N(CCc1c[nH]c2ccccc12)CC(=O)N(CCc1c[nH]c2ccccc12)CC(N)=O)C(=O)CN(CCCCN)C(=O)CN(CCCCN)C(=O)CN(C(=O)CN(C(=O)CN(CCCCN)C(=O)CN(C(=O)CN(C(=O)CN(CCCCN)C(=O)[C@H](Cc1c[nH]cn1)NC(=O)CNC(=O)CN)[C@@H](C)c1ccccc1)[C@@H](C)c1ccccc1)[C@@H](C)c1ccccc1)[C@@H](C)c1ccccc1` (H-GGH[Nlys][Nspe][Nspe][Nlys][Nspe][Nspe][Nlys][Nlys][Nspe][Nlys][Gly(N(CH2)2(3-indolyl))][Gly(N(CH2)2(3-indolyl))]-NH2) here?
Its hemolysis at 1 h, 100 µM is 5.57%.

And the Activity [2]?
The Activity was “Non-Toxic”.

And the Activity (Escherichia coli [3])?
Its Activity is 32.8%.

And the Activity [4]?
Its Activity is “Non-Toxic”.

And the inhibition (RAW264.7 [5])?
Its inhibition is “Active”.

What about the Activity (RAW264.7 [6]) of the same compound?
Its Activity is 32.5%.

And the Activity (Lipopolysaccharide (LPS))?
The Activity was “Active”.

And the Activity (HEK293)?
Its Activity is “Non-Toxic”.

What about the LC50 (HaCaT) of the same compound?
Its LC50 is 110 µM.

What about the selectivity ratio [7] of the same compound?
The selectivity ratio was > 15.8.

And the hemolysis at 1 h, 50 µM [8]?
The hemolysis at 1 h, 50 µM was 4.83%.

What about the Activity (RAW264.7 [9]) of the same compound?
Its Activity is 80.9%.

What about the Activity (L929) of the same compound?
Its Activity is “Non-Toxic”.

What about the Activity (Escherichia coli [10]) of the same compound?
Its Activity is “Active”.

What about the Activity (Cell membrane) of the same compound?
The Activity was “Dose-Dependent Effect”.

And the Activity (Escherichia coli [11])?
Its Activity is 32.7%.

What about the survival at 5 mg/kg (Escherichia coli [12]) of the same compound?
Its survival at 5 mg/kg is 60%.

And the LC50 (MRC5)?
The LC50 was 187 µM.

And the Activity [13]?
Its Activity is “Non-Toxic”.

What about the inhibition (HEK-Blue hTLR7) of the same compound?
Its inhibition is 49.7%.

And the Activity [14]?
Its Activity is “Non-Toxic”.

And the Activity (Escherichia coli [15])?
The Activity was 40.3%.

And the Activity (Escherichia coli [16])?
The Activity was 46.6%.

And the Activity (Escherichia coli [17])?
The Activity was “Active”.

What about the Activity [18] of the same compound?
Its Activity is “Non-Toxic”.

What about the Activity [19] of the same compound?
Its Activity is “Non-Toxic”.

And the LC50 (RAW264.7 [20])?
Its LC50 is 39.6 µM.

And the Activity (Escherichia coli [21])?
The Activity was “Active”.

What about the Activity (Escherichia coli [22]) of the same compound?
Its Activity is “Active”.

And the Activity [23]?
Its Activity is “Non-Toxic”.

And the Activity (Escherichia coli [24])?
Its Activity is “Active”.

And the hemolysis at 1 h, 25 µM [25]?
The hemolysis at 1 h, 25 µM was 3.13%.

And the Activity (Escherichia coli [26])?
The Activity was “Active”.
